Each structure is given as a SMILES string. Calls of active or inactive are those of the source. The rule behind the calls is not given here.

Data set [1] addresses Fibroblast growth factor receptor 3 (Homo sapiens, UniProt P22607).
Description: Inhibition of FGFR3 (unknown orgin) using Tyr 04 peptide as substrate incubated for 1 hr in presence of 75 uM ATP by FRET based Z'-LYTE assay
For data set [2], the system named is BaF3. Description: Antiproliferative activity against mouse BAF3 cells assessed as inhibition of cell growth incubated for 72 hrs by CCK8 assay. It is filed as functional, cell-based. As to conditions: BaF3, 72 h. In general terms: Tetrazolium assays rely on reduction of a dye to a coloured formazan, in cell work by metabolically active cells.
Data set [3] has as its system Huh-7. Description: Antitumor activity against human Huh-7 cells xenografted in ip dosed BALB/c nude mouse assessed as tumor growth inhibition administered twice daily for 17 continuous days and measured every 2 days. It is filed as functional, organism-based. As to conditions: time 17.0 day, DDE = dose-dependent effect. Background: Xenograft models place foreign cells or tissue in a host animal.

The subject of another data set is Hep 3B2. Description: cells. Conditions: Homo sapiens, Hep3B, 120 h.
The nature of data set [4]: Antiproliferative activity against human JHH7 cells assessed as inhibition of cell growth incubated for 5 days by SRB assay. It is filed as functional, cell-based. As to conditions: JHH7, 120 h.
The target in data set [5] is Fibroblast growth factor receptor 4 (Mus musculus) (UniProt Q03142). Description: Inhibition of wild type FGFR4 phosphorylation in mouse BAF3 cells at 30 nM incubated for 6 hrs by Western blot analysis. It is filed as cell-based.
The nature of data set [6]: Toxicity in BALB/c nude mouse xenografted with human Huh-7 cells assessed as loss of body weight at 20 to 40 mg/kg, […] administered twice daily for 17 days and measured every 2 days. It is filed as organism-based. As to conditions: in vivo, 408 h, dose 20-40 mg/kg, time 17 day.
The test system of another data set is NCI-H1299. Description: cells. As to conditions: Homo sapiens, NCI-H1299, 120 h.
The target in data set [7] is Fibroblast growth factor receptor 4 (Mus musculus) (UniProt Q03142). Description: Inhibition of wild type FGFR4 phosphorylation in mouse BAF3 cells assessed as reduction in FRS2 level at 3 to 90 nM incubated for 6 hrs by Western blot analysis. It is filed as cell-based. As to conditions: dose 3-90 nM. In general terms: Immunoblotting shows a protein as a band on a membrane.

The subject of data set [8] is BaF3. The data set is described as follows: Inhibition of FGFR4 V550L mutant signalling in mouse BAF3 cells at 3 to 90 nM incubated for 6 hrs by Western blot analysis. It is filed as cell-based. As to conditions: dose 3-90 nM.
For data set [9], the system named is BaF3. The data set is described as follows: cells. Conditions: Mus musculus, BaF3, 72 h.
In data set [10] the target is Fibroblast growth factor receptor 2 (Homo sapiens, UniProt P21802).
Description: Inhibition of FGFR2 (unknown orgin) using Tyr 04 peptide as substrate incubated for 1 hr in presence of 5 uM ATP by FRET based Z'-LYTE assay
The target of data set [11] is Fibroblast growth factor receptor 1 (Homo sapiens, UniProt P11362).
Description: Inhibition of FGFR1 (unknown orgin) using Tyr 04 peptide as substrate incubated for 1 hr in presence of 25 uM ATP by FRET based Z'-LYTE assay
Another data set relates to MDA-MB-453. Description: cells. As to conditions: Homo sapiens, MDA-MB-453, 120 h.
For data set [12], the system named is Huh-7. The data set is described as follows: Antiproliferative activity against human Huh-7 cells assessed as inhibition of cell growth incubated for 5 days by SRB assay. It is filed as functional, cell-based. As to conditions: Huh-7, 120 h.
In data set [13] the test system is BaF3. The data set is described as follows: Antiproliferative activity against mouse BAF3 cells expressing FGFR4 V550M mutant assessed as inhibition of cell growth incubated for 72 hrs by CCK8 assay. It is filed as functional, cell-based. Conditions: BaF3, 72 h.
Data set [14] deals with Huh-7. Description: Antitumor activity against human Huh-7 cells xenografted in BALB/c nude mouse assessed as tumor growth inhibition at 20 mg/kg, ip administered twice daily for 17 continuous days and measured every 2 days. As to conditions: Huh-7, 408 h, time 17 day, read-out: TGI. It is filed as functional.
Data set [15] has as its system BaF3. The data set is described as follows: cells. As to conditions: Mus musculus, BaF3, 72 h. The source holds these as a separate data set.
Data set [16] concerns the target Fibroblast growth factor receptor 4 (Mus musculus) (UniProt Q03142). The data set is described as follows: Inhibition of wild type FGFR4 phosphorylation in mouse BAF3 cells assessed as reduction in MAPK level at 3 to 90 nM incubated for 6 hrs by Western blot analysis. It is filed as cell-based. Conditions: dose 3-90 nM.
For data set [17], the system named is Huh-7. Description: Antitumor activity against human Huh-7 cells xenografted in BALB/c nude mouse assessed as tumor growth inhibition at 40 mg/kg, ip administered twice daily for 17 continuous days and measured every 2 days. It is filed as functional. Conditions: Huh-7, 408 h, time 17 day, read-out: TGI.

Fibroblast growth factor receptor 4 (Mus musculus), sequence (Q03142 17-799 limits assumed): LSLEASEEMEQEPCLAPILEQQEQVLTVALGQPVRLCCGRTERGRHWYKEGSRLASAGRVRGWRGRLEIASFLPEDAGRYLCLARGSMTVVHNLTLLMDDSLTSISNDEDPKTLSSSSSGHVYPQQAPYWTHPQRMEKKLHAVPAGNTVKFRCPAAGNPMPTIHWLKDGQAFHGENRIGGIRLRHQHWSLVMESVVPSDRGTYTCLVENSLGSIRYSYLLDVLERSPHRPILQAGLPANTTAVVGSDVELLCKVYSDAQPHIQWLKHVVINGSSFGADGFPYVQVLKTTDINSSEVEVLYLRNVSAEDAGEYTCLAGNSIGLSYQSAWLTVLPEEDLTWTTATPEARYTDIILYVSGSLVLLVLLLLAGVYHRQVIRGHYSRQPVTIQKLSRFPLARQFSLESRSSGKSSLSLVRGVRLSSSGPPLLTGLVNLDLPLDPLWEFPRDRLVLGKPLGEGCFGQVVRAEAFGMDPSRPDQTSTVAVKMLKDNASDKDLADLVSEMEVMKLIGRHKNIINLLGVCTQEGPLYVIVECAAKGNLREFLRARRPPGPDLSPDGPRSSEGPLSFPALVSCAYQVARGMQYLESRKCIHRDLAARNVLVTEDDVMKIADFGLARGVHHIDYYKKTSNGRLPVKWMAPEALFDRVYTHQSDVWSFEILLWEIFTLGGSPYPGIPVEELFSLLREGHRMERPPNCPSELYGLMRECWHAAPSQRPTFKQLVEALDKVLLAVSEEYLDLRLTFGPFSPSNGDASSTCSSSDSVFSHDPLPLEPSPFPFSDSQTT
Fibroblast growth factor receptor 2, sequence (P21802 whole entry): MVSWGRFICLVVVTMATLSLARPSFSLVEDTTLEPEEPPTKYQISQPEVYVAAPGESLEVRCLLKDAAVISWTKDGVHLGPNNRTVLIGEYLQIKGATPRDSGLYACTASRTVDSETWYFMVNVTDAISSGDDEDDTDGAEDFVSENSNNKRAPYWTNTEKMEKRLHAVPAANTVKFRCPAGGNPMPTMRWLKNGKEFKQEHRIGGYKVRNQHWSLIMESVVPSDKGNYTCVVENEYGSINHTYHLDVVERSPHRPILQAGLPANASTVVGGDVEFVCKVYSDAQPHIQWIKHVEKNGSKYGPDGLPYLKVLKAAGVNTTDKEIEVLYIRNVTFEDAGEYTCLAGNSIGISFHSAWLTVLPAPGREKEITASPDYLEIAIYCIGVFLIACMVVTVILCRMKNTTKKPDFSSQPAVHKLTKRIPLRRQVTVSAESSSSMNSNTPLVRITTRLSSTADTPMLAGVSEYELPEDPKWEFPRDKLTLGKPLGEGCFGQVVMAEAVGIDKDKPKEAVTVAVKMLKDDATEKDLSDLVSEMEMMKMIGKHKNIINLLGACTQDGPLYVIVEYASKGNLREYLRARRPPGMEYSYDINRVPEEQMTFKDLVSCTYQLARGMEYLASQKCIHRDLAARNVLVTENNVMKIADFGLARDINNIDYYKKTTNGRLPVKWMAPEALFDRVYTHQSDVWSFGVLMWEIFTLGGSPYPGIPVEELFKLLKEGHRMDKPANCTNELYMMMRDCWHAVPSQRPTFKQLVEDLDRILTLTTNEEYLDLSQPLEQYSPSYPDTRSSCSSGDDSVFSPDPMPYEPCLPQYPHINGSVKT
Fibroblast growth factor receptor 1, sequence (P11362 whole entry): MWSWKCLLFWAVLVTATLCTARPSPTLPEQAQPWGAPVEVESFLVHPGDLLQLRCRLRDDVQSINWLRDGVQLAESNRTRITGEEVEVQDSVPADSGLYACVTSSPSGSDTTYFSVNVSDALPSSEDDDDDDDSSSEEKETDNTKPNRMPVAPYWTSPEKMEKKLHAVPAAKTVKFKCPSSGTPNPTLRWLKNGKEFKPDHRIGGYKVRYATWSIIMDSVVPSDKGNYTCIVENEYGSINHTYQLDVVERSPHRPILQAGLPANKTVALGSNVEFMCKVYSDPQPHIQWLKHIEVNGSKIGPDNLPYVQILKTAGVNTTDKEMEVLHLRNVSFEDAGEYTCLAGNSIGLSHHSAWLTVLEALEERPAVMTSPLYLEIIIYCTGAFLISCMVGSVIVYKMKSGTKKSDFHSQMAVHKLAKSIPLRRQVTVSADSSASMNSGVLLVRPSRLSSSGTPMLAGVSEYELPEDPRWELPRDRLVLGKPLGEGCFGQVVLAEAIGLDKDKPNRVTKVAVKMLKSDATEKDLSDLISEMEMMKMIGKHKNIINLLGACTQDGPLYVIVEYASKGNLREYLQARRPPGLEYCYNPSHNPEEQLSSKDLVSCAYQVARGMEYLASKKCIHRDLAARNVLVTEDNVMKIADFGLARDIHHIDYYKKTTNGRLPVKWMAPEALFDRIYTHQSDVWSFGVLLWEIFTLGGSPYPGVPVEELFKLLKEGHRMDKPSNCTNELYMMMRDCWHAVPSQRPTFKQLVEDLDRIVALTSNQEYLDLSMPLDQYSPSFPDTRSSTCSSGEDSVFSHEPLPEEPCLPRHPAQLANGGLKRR
Fibroblast growth factor receptor 3, sequence (P22607 whole entry): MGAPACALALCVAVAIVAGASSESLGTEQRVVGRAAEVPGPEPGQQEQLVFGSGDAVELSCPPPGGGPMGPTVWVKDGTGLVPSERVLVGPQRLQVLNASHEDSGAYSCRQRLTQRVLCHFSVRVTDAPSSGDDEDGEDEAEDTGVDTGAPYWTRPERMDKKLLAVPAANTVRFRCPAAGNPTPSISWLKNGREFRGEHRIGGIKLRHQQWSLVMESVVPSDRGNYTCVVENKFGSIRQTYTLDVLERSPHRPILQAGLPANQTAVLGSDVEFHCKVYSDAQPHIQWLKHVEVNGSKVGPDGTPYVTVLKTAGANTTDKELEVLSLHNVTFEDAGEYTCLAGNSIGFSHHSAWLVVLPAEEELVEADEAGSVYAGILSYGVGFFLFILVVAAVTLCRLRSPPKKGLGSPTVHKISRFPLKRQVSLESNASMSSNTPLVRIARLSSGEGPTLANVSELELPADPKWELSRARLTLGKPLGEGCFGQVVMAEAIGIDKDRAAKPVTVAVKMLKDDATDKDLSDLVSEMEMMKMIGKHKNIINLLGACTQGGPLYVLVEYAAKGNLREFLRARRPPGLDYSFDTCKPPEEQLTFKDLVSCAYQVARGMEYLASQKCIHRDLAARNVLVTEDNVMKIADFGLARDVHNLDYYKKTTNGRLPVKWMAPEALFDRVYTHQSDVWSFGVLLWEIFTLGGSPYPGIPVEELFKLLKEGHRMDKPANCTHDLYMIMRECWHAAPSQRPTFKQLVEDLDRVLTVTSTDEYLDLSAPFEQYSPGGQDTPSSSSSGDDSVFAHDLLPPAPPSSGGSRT
Description for Hep 3B2: Antiproliferative activity against human Hep3B cells assessed as inhibition of cell growth incubated for 5 days by SRB assay
Description for MDA-MB-453: Antiproliferative activity against human MDA-MB-453 cells assessed as inhibition of cell growth incubated for 5 days by SRB assay
Description for NCI-H1299: Antiproliferative activity against human NCI-H1299 cells assessed as inhibition of cell growth incubated for 5 days by SRB assay

Turning to `C=CC(=O)Nc1cc(N2CCC(N3CCOCC3)CC2)cc(F)c1Nc1n[nH]c2ccc(O[C@H](C)c3c(Cl)cncc3Cl)cc12`, the IC50 in data set [1] was above 10 µM; in the data set with BaF3 [2], above 1000 nM; with Hep 3B2 it was 29 nM; in [4], 54 nM; in the data set with NCI-H1299, 2970 nM; in the data set on BaF3 [9], 3.5 nM. In addition, the IC50 was above 10 µM in data set [10]; above 10 µM in data set [11]; 34 nM with MDA-MB-453; 72 nM in the data set on Huh-7 [12]; 8.1 nM in the data set with BaF3 [13]; 4.7 nM with BaF3 [15]. For the same molecule, the Activity result in the data set with Huh-7 [3] was “Dde”; in [6] it was “Non-Toxic”. In addition, the inhibition entry (in data set [5]; in [7]; in the data set with BaF3 [8]; in data set [16]) was “Active” in each case. The inhibition in vivo at 20 mg/kg in the data set on Huh-7 [14] came out at 25.9%. Moreover, the inhibition in vivo at 40 mg/kg in the data set with Huh-7 [17] came out at 46.9%.

Usually IC50 stands for the concentration needed to halve the response being measured.

For the origin of these results see ChEMBL document CHEMBL5154789 (J Med Chem, 2022).
